Values quoted from earlier work as cited in paper PMC10582678 (Clinical and Translational Science, 2023).
Like-named read-outs stand apart in the source and are kept apart here.

Target: BTK (Homo sapiens, UniProt Q06187)
Details: cited from earlier work

Sequence of BTK (Q06187 whole entry): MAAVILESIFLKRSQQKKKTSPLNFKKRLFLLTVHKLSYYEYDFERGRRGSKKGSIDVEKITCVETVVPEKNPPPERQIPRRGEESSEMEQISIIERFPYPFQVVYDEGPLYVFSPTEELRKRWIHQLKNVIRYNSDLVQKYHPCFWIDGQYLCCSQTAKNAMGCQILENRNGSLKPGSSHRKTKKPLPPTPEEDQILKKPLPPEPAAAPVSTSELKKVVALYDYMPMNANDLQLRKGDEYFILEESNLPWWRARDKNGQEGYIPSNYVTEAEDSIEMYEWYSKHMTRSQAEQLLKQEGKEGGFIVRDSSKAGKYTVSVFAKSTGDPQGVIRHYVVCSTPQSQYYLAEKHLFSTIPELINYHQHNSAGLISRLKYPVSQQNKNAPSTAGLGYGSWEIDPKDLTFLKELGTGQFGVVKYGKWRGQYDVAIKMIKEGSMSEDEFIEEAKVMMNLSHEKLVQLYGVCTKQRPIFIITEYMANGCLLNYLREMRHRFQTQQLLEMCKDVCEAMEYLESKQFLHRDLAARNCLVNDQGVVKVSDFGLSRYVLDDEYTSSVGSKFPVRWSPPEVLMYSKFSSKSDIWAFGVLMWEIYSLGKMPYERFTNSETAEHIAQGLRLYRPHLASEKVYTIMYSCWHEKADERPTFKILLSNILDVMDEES

In the case of `CC#CC(=O)N1CCC[C@H]1c1nc(-c2ccc(C(=O)Nc3ccccn3)cc2)c2c(N)nccn12` [acalabrutinib], the “BTK receptor occupancy rate” value (twice daily dosing regimen) is listed as 96%.
In the case of `C=CC(=O)Nc1cccc(Nc2nc(Nc3ccc(OCCOC)cc3)ncc2F)c1` [spebrutinib], the “BTK receptor occupancy rate” value (b.i.d., patients with rheumatoid arthritis) is listed as 88%.
